In brackets after ≈: the same amount, converted by molar mass. Activity calls are given as the source filed them. No cut-off for these calls is given here.
Legend:
[1] = tested on: Ixodes ricinus; assay: Inhibition of Ixodes ricinus CatD expressed in Escherichia coli BL21(DE3) at 50 nM using Abz-Lys-Pro-Ala-Glu-Phe-Nph-Ala-Leu as substrate preincubated for 10 mins followed by substrate addition and measured by FRET assay
[2] = molecular target: Beta-secretase 1 (Homo sapiens) (UniProt P56817); assay: Inhibition of recombinant human C-terminal 10His-tagged BACE1 expressed in mouse NS0 cells at 5 uM using Mca-Ser-Glu-Val-Asn-Leu-Asp-Ala-Glu-Phe-Arg-Lys(Dnp)-Arg-Arg as substrate preincubated for 10 mins followed by substrate addition and measured by FRET assay
[3] = molecular target: Protease (Human immunodeficiency virus 1) (UniProt Q9YQ12); assay: Inhibition of HIV1 protease at 5 uM using Abz-Tyr-Ile-Nle-Nph-Gln-Arg as substrate preincubated for 10 mins followed by substrate addition and measured by FRET assay
[4] = molecular target: Protease (Human immunodeficiency virus 1) (UniProt Q9YQ12); assay: Inhibition of HIV1 protease at 50 nM using Abz-Tyr-Ile-Nle-Nph-Gln-Arg as substrate preincubated for 10 mins followed by substrate addition and measured by FRET assay
[5] = molecular target: Saccharopepsin (Saccharomyces cerevisiae S288c) (UniProt P07267); assay: Inhibition of Baker's yeast proteinase A at 50 nM using Abz-Lys-Pro-Ala-Glu-Phe-Nph-Ala-Leu as substrate preincubated for 10 mins followed by substrate addition and measured by FRET assay
[6] = molecular target: T1, Renin (Homo sapiens) (UniProt P00797); assay: Inhibition of recombinant human N-terminal FLAG-tagged renin (67 to 406 residues) expressed in HEK cells at 5 uM using Arg-Glu(EDANS)-Ile-His-Pro-Phe-His-Leu-Val-Ile-His-Thr-Lys(Dabcyl)-Arg as substrate preincubated for 10 mins followed by substrate addition and measured by FRET assay
T1 sequence (whole entry): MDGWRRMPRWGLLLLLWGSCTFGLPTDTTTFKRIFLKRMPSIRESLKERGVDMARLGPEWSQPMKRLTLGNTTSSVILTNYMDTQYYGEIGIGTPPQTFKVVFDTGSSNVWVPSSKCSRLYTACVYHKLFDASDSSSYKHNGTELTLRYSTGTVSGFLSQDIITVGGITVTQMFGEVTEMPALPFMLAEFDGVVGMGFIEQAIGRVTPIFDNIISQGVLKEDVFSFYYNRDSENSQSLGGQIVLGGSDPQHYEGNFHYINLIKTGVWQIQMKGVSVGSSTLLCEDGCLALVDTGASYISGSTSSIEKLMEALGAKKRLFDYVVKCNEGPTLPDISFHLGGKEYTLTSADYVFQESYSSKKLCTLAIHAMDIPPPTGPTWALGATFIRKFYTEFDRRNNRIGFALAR

[7] = species: Sus scrofa; assay: Inhibition of porcine pepsin at 50 nM using Abz-Lys-Pro-Ala-Glu-Phe-Nph-Ala-Leu as substrate preincubated for 10 mins followed by substrate addition and measured by FRET assay
[8] = molecular target: T1, Renin (Homo sapiens); assay: Inhibition of recombinant human N-terminal FLAG-tagged renin (67 to 406 residues) expressed in HEK cells at 50 nM using Arg-Glu(EDANS)-Ile-His-Pro-Phe-His-Leu-Val-Ile-His-Thr-Lys(Dabcyl)-Arg as substrate preincubated for 10 mins followed by substrate addition and measured by FRET assay
[9] = molecular target: Cathepsin D (Homo sapiens, UniProt P07339); assay: Inhibition of human placenta CatD using Abz-Lys-Pro-Ala-Glu-Phe-Nph-Ala-Leu as substrate preincubated for 10 mins followed by substrate addition and measured by FRET assay
[10] = molecular target: Beta-secretase 1 (Homo sapiens) (UniProt P56817); assay: Inhibition of recombinant human C-terminal 10His-tagged BACE1 expressed in mouse NS0 cells at 50 nM using Mca-Ser-Glu-Val-Asn-Leu-Asp-Ala-Glu-Phe-Arg-Lys(Dnp)-Arg-Arg as substrate preincubated for 10 mins followed by substrate addition and measured by FRET assay
[11] = Apparent permeability in human Caco2 cells at 5 uM measured after 5 hrs by LC-MS analysis; type: ADME, cell-based; conditions: Caco-2
[12] = Solubility of the compound in pH 7.4 phosphate buffered saline by HPLC-MS analysis; type: physicochemical
[13] = tested on: PBMC; assay: Cytotoxicity against human PBMC cells assessed as reduction in cell viability up to 100 uM measured after 72 hrs by Celltiter-glo assay; type: cell-based
[14] = tested on: NHDF; assay: Cytotoxicity against NHDF cells assessed as reduction in cell viability up to 100 uM measured after 72 hrs by Celltiter-glo assay; type: cell-based; conditions: human

Beta-secretase 1 (Homo sapiens), sequence (P56817 whole entry): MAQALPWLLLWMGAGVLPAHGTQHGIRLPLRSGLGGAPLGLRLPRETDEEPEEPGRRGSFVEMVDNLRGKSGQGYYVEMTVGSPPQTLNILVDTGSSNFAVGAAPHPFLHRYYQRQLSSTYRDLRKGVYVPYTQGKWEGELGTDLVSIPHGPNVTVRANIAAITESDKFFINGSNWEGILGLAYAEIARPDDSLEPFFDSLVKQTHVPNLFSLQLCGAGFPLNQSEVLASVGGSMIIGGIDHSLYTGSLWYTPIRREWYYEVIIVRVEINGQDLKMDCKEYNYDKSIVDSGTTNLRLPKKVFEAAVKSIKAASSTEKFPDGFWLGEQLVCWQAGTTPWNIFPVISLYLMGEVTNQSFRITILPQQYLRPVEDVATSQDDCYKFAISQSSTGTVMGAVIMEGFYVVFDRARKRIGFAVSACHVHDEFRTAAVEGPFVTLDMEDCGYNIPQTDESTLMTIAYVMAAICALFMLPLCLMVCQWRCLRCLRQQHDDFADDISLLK
Saccharopepsin (Saccharomyces cerevisiae S288c), sequence (P07267 whole entry, the tested form may be a part): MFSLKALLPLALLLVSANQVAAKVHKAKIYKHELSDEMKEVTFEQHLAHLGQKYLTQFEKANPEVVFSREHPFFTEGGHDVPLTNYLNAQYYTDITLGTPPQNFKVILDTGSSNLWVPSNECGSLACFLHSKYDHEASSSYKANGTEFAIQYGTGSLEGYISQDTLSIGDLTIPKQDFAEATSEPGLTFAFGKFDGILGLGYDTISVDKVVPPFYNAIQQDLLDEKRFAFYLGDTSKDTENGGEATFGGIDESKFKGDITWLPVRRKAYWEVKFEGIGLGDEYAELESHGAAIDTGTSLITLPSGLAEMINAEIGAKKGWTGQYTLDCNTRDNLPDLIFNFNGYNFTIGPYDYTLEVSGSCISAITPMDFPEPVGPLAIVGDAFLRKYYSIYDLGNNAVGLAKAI
Protease (Human immunodeficiency virus 1), sequence (Q9YQ12 as listed by the source): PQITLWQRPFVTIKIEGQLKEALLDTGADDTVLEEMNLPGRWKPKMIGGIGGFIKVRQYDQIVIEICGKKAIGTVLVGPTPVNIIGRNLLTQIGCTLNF
Cathepsin D, sequence (P07339 65-162 limits assumed): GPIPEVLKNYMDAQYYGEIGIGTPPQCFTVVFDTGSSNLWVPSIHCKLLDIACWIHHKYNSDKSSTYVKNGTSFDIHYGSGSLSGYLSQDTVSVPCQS
Cathepsin D, sequence (P07339 169-412 limits assumed): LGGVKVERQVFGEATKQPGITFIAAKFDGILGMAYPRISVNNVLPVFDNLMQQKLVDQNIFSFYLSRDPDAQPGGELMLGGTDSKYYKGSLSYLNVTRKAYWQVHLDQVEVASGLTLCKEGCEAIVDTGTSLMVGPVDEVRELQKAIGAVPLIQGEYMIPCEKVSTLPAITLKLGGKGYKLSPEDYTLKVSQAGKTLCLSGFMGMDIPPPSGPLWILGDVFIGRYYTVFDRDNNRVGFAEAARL

## CC(C)[C@@H]1NC(=O)C[C@H](O)[C@H](Cc2c[nH]c3ccccc23)NC(=O)CCCCCCCCCCCNC1=O
[1]
  inhibition: Active
[2]
  inhibition: Active
[3]
  inhibition: Active
[4]
  inhibition: inactive
[5]
  inhibition: Active
[6]
  inhibition: Active
[7]
  inhibition: Active
[8]
  inhibition: inactive
[9]
  IC50: 190 nM
[10]
  inhibition: inactive

## CC(C)[C@@H]1NC(=O)C[C@H](O)[C@H](CC2CCCCC2)NC(=O)CCCCCCCCCCCNC1=O
[1]
  inhibition: Active
[2]
  inhibition: Active
[3]
  inhibition: Active
[4]
  inhibition: inactive
[5]
  inhibition: Active
[6]
  inhibition: Active
[7]
  inhibition: Active
[8]
  inhibition: inactive
[9]
  IC50: 9 nM
[10]
  inhibition: inactive

## O=C1C[C@H](O)[C@H](Cc2ccccc2)NC(=O)CCCCCCCCCCCNC(=O)[C@H](c2ccccc2)N1
[1]
  inhibition: Active
[2]
  inhibition: Active
[3]
  inhibition: Active
[4]
  inhibition: inactive
[5]
  inhibition: Active
[6]
  inhibition: Active
[7]
  inhibition: Active
[8]
  inhibition: inactive
[9]
  IC50: 27 nM
[10]
  inhibition: inactive

## O=C1C[C@H](O)[C@H](Cc2ccccc2)NC(=O)CCCCCCCCCCCNC(=O)[C@H](Cc2ccccc2)N1
[1]
  inhibition: Active
[2]
  inhibition: Active
[3]
  inhibition: Active
[4]
  inhibition: inactive
[5]
  inhibition: Active
[6]
  inhibition: Active
[7]
  inhibition: Active
[8]
  inhibition: inactive
[9]
  IC50: 15 nM
[10]
  inhibition: inactive

## CC(C)C[C@@H]1NC(=O)CCCCCCCCCCCNC(=O)[C@H](C(C)C)NC(=O)C[C@@H]1O
[1]
  inhibition: Active
[2]
  inhibition: Active
[3]
  inhibition: Active
[4]
  inhibition: inactive
[5]
  inhibition: Active
[6]
  inhibition: Active
[7]
  inhibition: Active
[8]
  inhibition: inactive
[9]
  IC50: 22 nM
[10]
  inhibition: inactive

## CC(C)CC(=O)N[C@H](C(=O)N[C@H](C(=O)N[C@@H](CC(C)C)[C@@H](O)CC(=O)N[C@@H](C)C(=O)N[C@@H](CC(C)C)[C@@H](O)CC(=O)O)C(C)C)C(C)C [PEPSTATIN]
[11]
  Papp at 5 h, 5 µM: 0.11 ×10⁻⁶ cm/s
[12]
  solubility: 197 µg/mL (≈ 287 µM)
[13]
  Activity: Non-Toxic
[14]
  Activity: Non-Toxic

## CC[C@@H](C)[C@@H]1NC(=O)C[C@H](O)[C@H](Cc2ccccc2)NC(=O)CCCCCCCCCCCNC1=O
[1]
  inhibition: Active
[2]
  inhibition: Active
[3]
  inhibition: Active
[4]
  inhibition: inactive
[5]
  inhibition: Active
[6]
  inhibition: Active
[7]
  inhibition: Active
[8]
  inhibition: inactive
[9]
  IC50: 3.8 nM
[10]
  inhibition: inactive

## CC(C)[C@@H]1NC(=O)C[C@H](O)[C@H](Cc2ccc(F)cc2)NC(=O)CCCCCCCCCCCNC1=O
[1]
  inhibition: Active
[2]
  inhibition: Active
[3]
  inhibition: Active
[4]
  inhibition: inactive
[5]
  inhibition: Active
[6]
  inhibition: Active
[8]
  inhibition: inactive
[9]
  IC50: 4.7 nM
[10]
  inhibition: inactive

## CC(=O)NCCCC[C@@H]1NC(=O)C[C@H](O)[C@H](Cc2ccccc2)NC(=O)CCCCCCCCCCCNC1=O
[1]
  inhibition: Active
[2]
  inhibition: Active
[3]
  inhibition: Active
[4]
  inhibition: inactive
[5]
  inhibition: Active
[6]
  inhibition: Active
[7]
  inhibition: Active
[8]
  inhibition: inactive
[9]
  IC50: 16 nM
[10]
  inhibition: inactive

## C[C@@H]1NC(=O)C[C@H](O)[C@H](Cc2ccccc2)NC(=O)CCCCCCCCCCCNC1=O
[1]
  inhibition: Active
[2]
  inhibition: Active
[3]
  inhibition: Active
[4]
  inhibition: inactive
[5]
  inhibition: Active
[6]
  inhibition: Active
[8]
  inhibition: inactive
[9]
  IC50: 68 nM
[10]
  inhibition: inactive

## CC(C)[C@@H]1NC(=O)C[C@H](O)[C@H](Cc2ccccc2)NC(=O)CCCCCCCCCCCCCNC1=O
[1]
  inhibition: Active
[2]
  inhibition: Active
[3]
  inhibition: Active
[4]
  inhibition: inactive
[5]
  inhibition: Active
[6]
  inhibition: Active
[7]
  inhibition: Active
[8]
  inhibition: inactive
[9]
  IC50: 11 nM
[10]
  inhibition: inactive

## CC(C)[C@@H]1NC(=O)C[C@H](O)[C@H](Cc2ccc(F)c(F)c2)NC(=O)CCCCCCCCCCCNC1=O
[1]
  inhibition: Active
[2]
  inhibition: Active
[3]
  inhibition: Active
[4]
  inhibition: inactive
[5]
  inhibition: Active
[6]
  inhibition: Active
[8]
  inhibition: inactive
[9]
  IC50: 3.1 nM
[10]
  inhibition: inactive
